Measured values reported in US4383113A, “Agricultural sulfonamides” (E. I. Du Pont de Nemours and Company, priority 1981, dated 1983).

What was measured:
Test in all cases: Test A post-emergence
Parameters in all cases: key: 0 = no effect, 10 = maximum effect; letter = response symbol
Details in all cases: 0.4 kg/ha
bush bean = format: in vivo, bush beans
morningglory = format: in vivo, Ipomoea spp.
Description: (§1) The activity of these compounds was discovered in a number of greenhouse and field tests. The ratings are based on a numerical scale extending from 0=no effect, to 10=maximum effect. The accompanying descriptive symbols have the following meanings:
(§2) Seeds of crabgrass (Digitaria spp.), barnyardgrass (Echinochloa crusgalli), wild oats (Avena fatua), cassia (Cassia tora), morningglory (Ipomoea spp.), cocklebur (Xanthium spp.), sorghum, corn, soybean, rice, wheat and nutsedge tubers (Cyperus rotundus) were planted in a growth medium and treated preemergence with a nonphytotoxic solvent solution of the compounds of Table XII. Other batches of seeds and tubers for all of the foregoing weed and crop plants were planted at the same time as controls. The control plantings were untreated; i.e., neither any compound nor any solvent was applied. At the same time, cotton having five leaves (including cotyledonary ones), bush beans with the third trifoliate leaf expanding, crabgrass with two leaves, barnyardgrass with two leaves, wild oats with two leaves, cassia with three leaves (including cotyledonary ones), morningglory with four leaves (including the cotyledonary ones), cocklebur with four leaves (including the cotyledonary ones), sorghum with four leaves, corn with four leaves, soybean with two cotyledonary leaves, rice with three leaves, wheat with one leaf, and nutsedge with three-five leaves were sprayed with a nonphytotoxic solvent solution of the compounds of Table XII. Other groups of all the same weed and crop plants were sprayed with the same nonphytotoxic solvent so as to provide control plants. Preemergence and postemergence treated plants and controls were maintained in a greenhouse for sixteen days, then all treated plants were compared with their respective controls and rated visually for response to treatment.

cocklebur = format: in vivo, Xanthium spp.
Description: as §1, §2

cassia = format: in vivo, Cassia tora
Description: as §1, §2

corn = format: in vivo
Description: as §1, §2

cotton = format: in vivo
Description: as §1, §2

nutsedge = format: in vivo, Cyperus rotundus
Description: as §1, §2

barnyardgrass = format: in vivo, Echinochloa crusgalli
Description: as §1, §2

wild oats = format: in vivo, Avena fatua
Description: as §1, §2

sorghum = format: in vivo
Description: as §1, §2

soybean = format: in vivo
Description: as §1, §2

wheat = format: in vivo
Description: as §1, §2

crabgrass = format: in vivo, Digitaria spp.
Description: as §1, §2

rice = format: in vivo
Description: as §1, §2

| SMILES | response rating (bush bean) | response rating (morningglory) | response rating (cocklebur) | response rating (cassia) | response rating (corn) | response rating (cotton) | response rating (nutsedge) | response rating (barnyardgrass) | response rating (wild oats) | response rating (sorghum) | response rating (soybean) | response rating (wheat) | response rating (crabgrass) | response rating (rice) |
| --- | --- | --- | --- | --- | --- | --- | --- | --- | --- | --- | --- | --- | --- | --- |
| COc1nc(C)nc(NC(=O)NS(=O)(=O)c2ccccc2C(=O)OC2CCCCC2C)n1 (stereo not drawn) | 9C | 10C | 9C | 9C | 10C | 9C | – | – | – | – | – | – | – | – |
| COC(=O)c1ccccc1S(=O)(=O)NC(=O)Nc1nc(C)cc(OC)n1 [drawing 413] | 9C | 10C | 9C | 9C | 10C | 9C | 9C | 9C | 9C | 9C | 9C | 9C | – | – |
| COc1cc(OC)nc(NC(=O)NS(=O)(=O)c2ccccc2C(=O)OCCCl)n1 [drawing 420] | 9C | 10C | 10C | 9C | – | 9C | 9C | 10C | – | 10C | 10C | – | – | – |
| COc1cc(C)nc(NC(=O)NS(=O)(=O)c2ccccc2C(=O)OCCCl)n1 [drawing 421] | 9C | 10C | 10C | 10C | 10C | 9C | 10C | 10C | – | 9C | – | – | – | – |
| COc1nc(C)nc(NC(=O)NS(=O)(=O)c2ccccc2C(=O)OC(C)C)n1 [drawing 425] | 9C | 10C | 10C | 10C | 10C | 9C | 10C | – | – | – | – | 2C | – | – |
| COc1nc(C)nc(NC(=O)NS(=O)(=O)c2ccccc2C(=O)OCCCl)n1 [drawing 426] | 9C | 10C | 10C | 9C | 9C | 9C | 9C | – | 4G | – | – | 1C | – | – |
| COC(=O)c1cc(Cl)ccc1S(=O)(=O)NC(=O)Nc1nc(OC)cc(OC)n1 [drawing 433] | 9C | 10C | 10C | 9C | 6H | 9C | 10C | – | 9G | – | – | – | – | – |
| COC(=O)c1cc(Cl)ccc1S(=O)(=O)NC(=O)Nc1nc(C)cc(OC)n1 [drawing 434] | – | 10C | 10C | 9C | 9H | – | – | – | – | – | – | – | 3G | 9C |
| COC(=O)c1cc(F)ccc1S(=O)(=O)NC(=O)Nc1nc(C)nc(OC)n1 [drawing 450] | 9C | 9C | – | 9C | 9C | – | – | – | 0 | – | – | 0 | 9C | 9C |
| CCOCCOC(=O)c1ccccc1S(=O)(=O)NC(=O)Nc1nc(Cl)cc(Cl)n1 [drawing 453] | – | 0 | 5C | 0 | – | 1C | 0 | – | 1C | – | – | 2G | 2C | – |
| C=CCCC(C)OC(=O)c1ccccc1S(=O)(=O)NC(=O)Nc1nc(C)nc(OC)n1 (stereo not drawn) [drawing 455] | 9C | 10C | 10C | 9C | 9C | 9C | 7G | – | – | – | 9C | – | 9C | – |
| COc1nc(C)nc(NC(=O)NS(=O)(=O)c2ccccc2C(=O)OC2CCCCCCC2)n1 [drawing 456] | 9C | 10C | 9C | 9C | 9C | 9C | 4G | – | 4G | – | – | 2G | – | – |
| COc1cc(C)nc(NC(=O)NS(=O)(=O)c2ccccc2C(=O)OCCOc2ccccc2)n1 [drawing 461] | 9C | 9C | 10C | – | – | 9C | 8G | 9C | – | 8G | 9C | – | 4G | – |
| COc1cc(C)nc(NC(=O)NS(=O)(=O)c2ccccc2C(=O)NCc2ccccc2)n1 [drawing 464] | 9C | 10C | 9C | – | 10C | 9C | – | 9C | 9C | 9C | 9C | 9C | – | – |
| CNC(=O)c1ccccc1S(=O)(=O)NC(=O)Nc1nc(C)cc(OC)n1 [drawing 466] | 9C | 10C | 9C | 9C | 10C | 10C | 10C | 9C | 9C | 10C | 9C | 9C | 9C | – |
| CCCCCCOC(=O)c1ccccc1S(=O)(=O)NC(=O)Nc1nc(C)cc(COC)n1 [drawing 471] | – | 2C | – | 1C | – | 2C | – | 3C | 0 | – | 2C | 0 | 0 | – |
| COC(=O)c1ccccc1S(=O)(=O)NC(=O)Nc1nc(OC)nc(OCC(F)(F)F)n1 [drawing 473] | 9C | 10C | 10C | 10C | 10C | 9C | – | – | – | – | – | – | 3G | – |
| COCCc1nc(NC(=O)NS(=O)(=O)c2ccccc2C(=O)OC)nc(OC)n1 [drawing 474] | 9C | 10C | – | – | 9C | 9C | – | – | – | – | 9C | 1C | 9C | – |
| COc1cc(C)nc(NC(=O)NS(=O)(=O)c2ccccc2C(=O)SCc2ccccc2)n1 [drawing 475] | 9C | 10C | 9C | 9C | 9C | 9C | – | 9C | – | – | 8C | – | – | – |
| COc1cc(C)nc(NC(=O)NS(=O)(=O)c2ccccc2C(=O)SC)n1 [drawing 477] | 9C | 9C | 9C | 9C | 9C | 9C | – | 9C | – | 9C | 9C | – | – | – |
| COc1cc(C)nc(NC(=O)NS(=O)(=O)c2ccccc2C(=O)OC(C)CCl)n1 (stereo not drawn) [drawing 478] | – | 10C | 9C | 10C | 9C | 9C | 9C | 10C | 8C | 9C | – | 8C | 9C | – |
